Tests used:
[1] = test system: yeast thioredoxin (Trx)/yeast Trx reductase (TR); test: Peroxidase activity assay (H2O2 reduction, NADPH oxidation); type: biochemical; settings: 50 μM test compound, 3 μM yeast Trx, 1.5 μM yeast TR, 250 μM NADPH, 1.2 mM H2O2, 30° C.; NADPH oxidized per minute
Experimental: Hydrogen peroxide (H2O2)-reducing peroxidase activity of compounds in present invention was performed as follows. Peroxyredoxin activity was measured in reaction mixture (200 μL volume) containing 50 mM HEPES buffer (pH 7.0), 1 mM EDTA, 250 μM NADPH, 3 μM yeast thioredoxin (Trx), 1.5 μM yeast Trx reductase (TR), 50 μM test compound, and 1.2 mM H2O2.
Reaction was initiated by adding H2O2 and the decrease in absorbance at 340 nm was measured using Agilent UV8453 spectrophotometry (Hewlett Packard, USA) at 30° C. for 12 min. Initial reaction rate is the amount of NADPH oxidized per minute calculated from slope of the linear part of curve.
The H2O2-reducing peroxidase activity of the test compounds in present invention was measured in a reaction mixture containing thioredoxin (Trx)/thioredoxin reductase (TR), respectively.

NIH-3T3 cells = test: Intracellular H2O2-eliminating activity (CM-H2DCF-DA fluorescence); type: cell-based; settings: Mus musculus, NIH3T3, glucose oxidase, concentration at 50% reduction of intracellular H2O2
Experimental: The activity of test compounds in present invention to eliminate intracellular H2O2 was measured as follows. NIH-3T3 cells (ATCC) were seeded in a 35-mm culture dish at 2×10^5 cells/well. After culture for 24 hours, cells were serum-starved with phenol red free-basal DMEM containing 0.5% FBS for 6 h. Starved NIH 3T3 cells were pretreated with compounds diluted with phenol red free-basal DMEM at concentrations ([…]) for 30 min, followed by treatment with 20 mU of glucose oxidase (Gox) for 30 min. A reactive oxygen species-sensitive fluorescence dye, carboxymethyl-dichlorofluorescein-diacetate (CM-H2DCF-DA), which was prepared in 1 mM DMSO stock and diluted 500 times in phenol red free-basal DMEM, was added to the cells and incubated for 5 min. Then, cells were quickly rinsed with basal medium. Images were taken at excitation 497 nm/emission 518 nm settings using a fluorescence microscope. Three images at 10× magnification per sample were obtained, and fluorescence intensities from 30 or more individual cells per image were averaged.
The intracellular H2O2-eliminating activity of test compounds in present invention was measured using a live-cell imaging fluorescence probe (CM-HaDCF-DA). H2O2-eliminating activity was measured depending on ascending concentrations of the test compound and expressed as the percent of activity compared to the untreated control group. EC50 represents the concentration of test compound at 50% reduction of intracellular H2O2.

[2] = Measurement of redox potential (DTT redox buffers, HPLC); type: physicochemical; settings: DTT(Red)/DTT(Ox) redox buffers, 3 h, 30° C., 50% reduction of test compound
Experimental: A test compound (10 mM) was diluted 20-fold with each redox buffer solution and incubated for 3 h in a 30° C. water bath. Then, compounds were analyzed by HPLC. The area of peaks corresponding to the oxidized and reduced forms of test compound based on specific retention time was calculated and plotted as percent of total peak area against the Nernst equation value (mV) at x-axis. The Nernst equation value corresponding to 50% reduction of test compound was set as the midpoint redox potential value for test compound.
The redox potential values of the test compounds were analyzed based on the potential values established in redox buffer solutions where reduced and oxidized DTT are mixed at various ratios.

[3] = test system: Tyr 857 phosphorylation of PDGF receptor-β (PDGFRβ) in HASMC; test: Immunoblot of PDGF-mediated signaling in PrxII knock-down HASMC; type: cell-based, human; settings: HASMC depleted of PrxII expression, FIG. 2
Experimental: (§1) Cells were quickly washed in ice-cold phosphate-buffered saline (PBS) and lysed in extraction buffer containing 20 mM Hepes (pH 7.0), 1% Triton X-100, 150 mM NaCl, 10% glycerol, 1 mM EDTA, 2 mM EGTA, and 1 mM DTT, 5 mM Na3VO4, 5 mM NaF, 1 mM AEBSF, aprotinin (5 μg/mL), and leupeptin (5 μg/mL). After cen-trifugation at 12,000×g, the clarified cell extracts were used for immunoblotting. For re-blotting, the immunoblots were retrieved in a solution of 67 mM Tris (pH 6.7), 2% SDS, and 100 mM 2-mercaptoethanol at 60° C. for 30 min to remove antibodies and rinsed three times with a Tris-buffered saline (TBS) solution containing 1% Triton X-100. The retrieved membranes were subjected to new immunoblotting.
In human aortic smooth muscle cell (HASMC) and human pulmonary artery smooth muscle cell (PASMC) in which PrxII was knocked out by transfecting the PrxII siRNA, the ability of test compounds to replace the cellular function of PrxII was evaluated. That is, the efficacy of the new compounds was verified in terms of signaling pathways induced by PDGF that regulates the growth and migration of vascular smooth muscle cells in the aorta and pulmonary artery. Activation of PDGF-induced signaling pathway was analyzed by an immunoblot method using an antibody that specifically recognizes phosphorylation of Tyr 857, which is a major phosphorylation site on PDGF receptor (PDGFRβ).

[4] = test system: Tyr 1175 phosphorylation of VEGF receptor-2 (VEGFR2) in HAEC; test: Immunoblot of VEGF-mediated signaling in PrxII knock-down HAEC; type: cell-based, human; settings: HAECs depleted of PrxII expression, FIG. 5
Experimental: as §1
In human aortic endothelial cell (HAEC) and human pulmonary artery endothelial cell (PAEC) in which PrxII was knocked out by transfecting the PrxII siRNA, the ability of test compounds to replace the cellular function of PrxII was evaluated. That is, the efficacy of the new compounds was verified in terms of signaling pathways induced by VEGF that regulates the growth and migration of vascular endothelial cells in the aorta and pulmonary artery. Activation of VEGF-induced signaling pathway was analyzed by an immunoblot method using an antibody that specifically recognizes phosphorylation of Tyr 1175, which is a major phosphorylation site on VEGF receptor-2 (VEGFR2).

[5] = test system: human aortic smooth muscle cell (HASMC); test: PDGF-induced proliferation assay, HASMC (PrxII siRNA); type: cell-based; settings: for Degree of HASMC proliferation: PDGF-BB 25 ng/mL, percent of untreated control; for IC50: Homo sapiens, HASMC, 50% growth inhibition, PDGF-stimulated
Experimental: (§2) HASMCs and PASMCs were transfected with a PrxII-specific siRNA using RNAi MAX transfection reagent according to manufacturer's protocol. After 24 hours, transfected cells (3,000 cells/well) were seeded in a 96-well culture plate. At 12 h after seeding, cells were serum-starved for additional 18 h in SmBM basal medium containing 0.5% FBS. Test compounds were serially diluted with the same basal medium containing 0.5% FBS, added to the cells ([…]), and incubated for 2 h. After treatment, cells were placed in fresh SmBM medium containing 0.5% FBS and PDGF-BB (25 ng/mL) for growth factor stimulation and further cultured for 24 h.
(§3) The degree of cell proliferation was measured using the Cell Titer-GLO kit ([…]). Data are the percent of luminescence intensity averaged from three replicate wells versus that of untreated control group.
(§4) In human aortic smooth muscle cell (HASMC) and human pulmonary artery smooth muscle cell (PASMC) in which PrxII was knocked out by transfecting the PrxII siRNA, the ability of test compounds to inhibit the PDGF-induced proliferation of vascular smooth muscle cells was evaluated. In Table 6, the degree of proliferation in the compound-treated groups is expressed as percent of the degree of proliferation in untreated control group. The concentrations of test compounds corresponding to 50% growth inhibition (IC50) is also listed.

[6] = test system: human pulmonary artery smooth muscle cell (PASMC); test: PDGF-induced proliferation assay, PASMC (PrxII siRNA); type: cell-based; settings: for Degree of PASMC proliferation: PDGF-BB 25 ng/mL, percent of untreated control; for IC50: Homo sapiens, PASMC, 50% growth inhibition, PDGF-stimulated
Experimental: as §2, §3, §4

[7] = test system: human aortic endothelial cell (HAEC); test: VEGF-induced proliferation assay, HAEC (PrxII siRNA); type: cell-based; settings: for Degree of HAEC proliferation: VEGF-A 25 ng/mL, percent of untreated control; for EC50: Homo sapiens, Endothelial cell, effective concentration increasing cell proliferation by 50%, VEGF-stimulated
Experimental: as §2, with “HAECs” for “HASMCs”, “PAECs” for “PASMCs”, “EBM” for “SmBM”, “VEGF-A” for “PDGF-BB”
as §3
In human aortic endothelial cell (HAEC) and human pulmonary artery endothelial cell (PAEC) in which PrxII was knocked out by transfecting the PrxII siRNA, the ability of test compounds to augment the VEGF-induced proliferation of vascular endothelial cells was evaluated. In Table 7, the degree of proliferation in the compound-treated groups is expressed as percent of the degree of proliferation in untreated control group. The effective concentrations of test compounds increasing cell proliferation by 50% (EC50) is also listed.

Experimental for in vitro: Cytotoxicity tests were performed against vascular endothelial cells, vascular smooth muscle cells and hepatocytes. After treatment with ascending concentrations of each compound, the concentration of test compound corresponding to 50% cell viability (CC50) was measured.

Structure (SMILES)	Peroxidase activity for H2O2 reduction [1] [nmol/min]	EC50 (NIH-3T3 cells) [nM]	Midpoint redox potential (E m) [2] [mV]	Effect on phosphorylation of Tyr 857 on PDGFR [3]	Effect on phosphorylation of Tyr 1175 on VEGFR2 [4]	CC50 (in vitro) [nM]	Degree of HASMC proliferation ([5]; 2.5 nM) [%]	Degree of HASMC proliferation ([5]; 5 nM) [%]	Degree of HASMC proliferation ([5]; 10 nM) [%]	Degree of HASMC proliferation ([5]; 25 nM) [%]	IC50 [5] [nM]	Degree of PASMC proliferation ([6]; 2.5 nM) [%]	Degree of PASMC proliferation ([6]; 5 nM) [%]	Degree of PASMC proliferation ([6]; 10 nM) [%]	Degree of PASMC proliferation ([6]; 25 nM) [%]	Degree of PASMC proliferation ([6]; 50 nM) [%]	Degree of PASMC proliferation ([6]; 100 nM) [%]	IC50 [6] [nM]	Degree of HAEC proliferation ([7]; 2.5 nM) [%]	Degree of HAEC proliferation ([7]; 5 nM) [%]	also measured
CN1C(=O)C2CSSC1(C)C(=O)N2Cc1ccccc1 (stereo not shown) [Compound 2, 6-benzyl-1,8-dimethyl-2,3-dithia-6,8-diazabicyclo[3.2.2]nonane-7,9-dione]	5.05	6.47	−293.19	strongly abolish the phosphorylation	strongly abolish the phosphorylation	> 500000															
CN1C(=O)C2CSSC1(C)C(=O)N2Cc1ccccn1 (stereo not shown) [Compound 6, 1,8-dimethyl-6-(pyridin-2-ylmethyl)-2,3-dithia-6,8-diazabicyclo[3.2.2]nonan-7,9-dione]	4.57	5.99	−290.39	strongly abolish the phosphorylation	strongly abolish the phosphorylation	341000															
CCN1C(=O)C23COCCN2C(=O)C1CSS3 (stereo not shown) [Compound 10, 12-ethyltetrahydro-5H,10H-4,10a-(epiminomethano)[1,4]oxazino[3,4-c][1,2,4]dithiaze pine-5,11-dione]	5.06		−268.53	strongly abolish the phosphorylation	strongly abolish the phosphorylation		75.5	53.8	31.1	4.6	5.48	90.5	54.1	44.1	21.9	17.5	7.0	8.28	111.6	122.8	Degree of HAEC proliferation ([7]; 10 nM): 127.6%; Degree of HAEC proliferation ([7]; 25 nM): 140.7%; Degree of HAEC proliferation ([7]; 50 nM): 175.1%; Degree of HAEC proliferation ([7]; 100 nM): 159.0%; EC50 [7]: 19.3 nM
CN1CCN2C(=O)C3CSSC2(C1)C(=O)N3Cc1ccccc1 (stereo not shown) [Compound 21, 12-benzyl-9-methylhexahydro-5H-4,10a-(epiminomethano)pyrazino[2,1-c][1,2,4]dithi azepine-5,11-dione]	8.38		−272.86	strongly abolish the phosphorylation	strongly abolish the phosphorylation		88.1	63.9	27.2	4.0	6.41	69.9	49.6	18.7	6.0	7.1	0.0	4.51	105.0	122.7	Degree of HAEC proliferation ([7]; 10 nM): 154.6%; Degree of HAEC proliferation ([7]; 25 nM): 190.1%; Degree of HAEC proliferation ([7]; 50 nM): 202.0%; Degree of HAEC proliferation ([7]; 100 nM): 141.2%; EC50 [7]: 9.96 nM
C=CCN1C(=O)C2SSC1C(=O)N2CC=C [Control compound (A5), reference compound]	4.25	15.2				62300															

Source: patent US20260008784A1 (VASTHERA CO., LTD., priority 2022, published 2026)
